Measured values: patent EP1172442A1, “VITAMIN D DERIVATIVES AND PROCESS FOR PRODUCING THE SAME” (MERCIAN CORPORATION, priority 1999, dated 2000)

Tests used:
[1] = tested on: VDR (chicken small intestine receptor); test: Binding ability to vitamin D receptor (VDR), radio receptor assay (RRA), competition with 3H-1,25(OH)2D3; details: relative value of B/B0 50% value, 1,25(OH)2D3 taken to be 100; 4°C for 3 hours
Experimental: Binding ability to VDR was examined by the following radio receptor assay (RRA) method.
1,25(OH)2D3 and each specimen were serially diluted at from 10^-11 M to 10^-6 M. 20µL of a [26,27-^3H]-1,25-dihydroxyvitamin D3 (^3H-1,25(OH)2D3) solution and 60 µL of 1,25(OH)2D3 or each specimen solution were added in a small test tube, and 0.5 mL of a VDR (chicken small intestine receptor) solution was added and mixed, and then allowed to stand at 4°C for 3 hours. Then, after 0.125 mL of a dextran-active carbon suspension was added and mixed, the mixture was allowed to stand on ice for 30 minutes, ^3H-1,25(OH)2D3 unbound to VDR was removed by centrifugation at 3000 rpm for 15 minutes, and then the quantity of ^3H-1,25 (OH)2D3 bound to VDR was measured using 0.5 mL of the supernatant.
The binding ability to VDR of each specimen was evaluated by calculating and comparing the B/B0 50% value. […] The VDR binding ability was shown in Table 1 as a relative value of each specimen when B/B0 50% value of 1,25(OH)2D3 is taken to be 100.

[2] = tested on: DBP (rat serum diluted with a barbital acetate buffer); test: Binding ability to vitamin D-bound protein (DBP), competitive protein binding assay (CPBA), competition with 3H-25(OH)D3; details: relative value of B/B0 50% value, 1,25(OH)2D3 taken to be 100; 4°C for 1 hour
Experimental: The binding ability to DBP was evaluated using the following competitive protein binding assay (CPBA). 1,25(OH)2D3 and each specimen were diluted to concentrations from 10^-11 M to 10^-5 M. 50 µL of a [26,27-^3H]-25-hydroxyvitamin D3 (^3H-25(OH)D3) solution and 100 µL of 1,25(OH)2D3 or each specimen solution were placed in a small test tube, and 1 mL of a DBP (rat serum diluted with a barbital acetate buffer) solution was added and mixed, and then allowed to stand at 4°C for 1 hour. Then, after 0.5 mL of a dextran-active carbon suspension was added and mixed, the mixture was allowed to stand on ice for 10 minutes, ^3H-25(OH)D3 unbound to DBP was removed by centrifugation at 3000 rpm for 15 minutes, and then the quantity of ^3H-25(OH)D3 bound to DBP was measured using 1 mL of the supernatant.
The binding ability to DBP of each specimen was evaluated by calculating and comparing the B/B0 50% value.

Compound | Binding ability to VDR [1] | Binding ability to DBP [2]
C=C1C[C@@H](O)[C@H](O)C/C1=C/C=C1\CCC[C@]2(C)[C@@H]([C@H](C)CCCC(C)(C)O)CC[C@@H]12 [Example 1(1), 2α,25-dihydroxyvitamin D3] | 32.480 | 11433.718
C=C1/C(=C\C=C2/CCC[C@]3(C)[C@@H]([C@H](C)CCCC(C)CO)CC[C@@H]23)C[C@@H](O)C[C@@H]1O (stereo partly drawn) [Example 2, 1α,26-dihydroxyvitamin D3] | 107.557 | 168.529
CC(C)C(O)CC[C@@H](C)[C@H]1CC[C@H]2/C(=C/C=C3/C[C@@H](O)C[C@H](O)/C3=C\F)CCC[C@]12C (stereo partly drawn) [Example 4(1), 19-fluoro-1α,24-dihydroxyvitamin D3] | 72.878 | 23.665
C[C@H](CCCC(C)(C)O)[C@H]1CC[C@H]2/C(=C/C=C3/C[C@@H](O)C[C@H](O)/C3=C\F)CCC[C@]12C [Example 4(2), 19-fluoro-1α,25-dihydroxyvitamin D3] | 62.386 | 35.792
CC(CO)CCC[C@@H](C)[C@H]1CC[C@H]2/C(=C/C=C3/C[C@@H](O)C[C@H](O)/C3=C\F)CCC[C@]12C (stereo partly drawn) [Example 4(3), 19-fluoro-1α,26-dihydroxyvitamin D3] | 29.129 | 35.257
C=C1CC[C@H](O)C(F)(F)/C1=C/C=C1\CCC[C@]2(C)[C@@H]([C@H](C)CCC(O)C(C)C)CC[C@@H]12 (stereo partly shown) [Example 5(1), 4,4-difluoro-24-hydroxyvitamin D3] | 81.860 | 16.633
C=C1CC[C@H](O)C(F)(F)/C1=C/C=C1\CCC[C@]2(C)[C@@H]([C@H](C)CCCC(C)CO)CC[C@@H]12 (stereo partly shown) [Example 5(3), 4,4-Difluoro-26-hydroxyvitamin D3] | 34.067 | 28.106
C=C1/C(=C\C=C2/CCC[C@]3(C)[C@@H]([C@H](C)CCCC(C)(C)O)CC[C@@H]23)C(F)(F)[C@@H](O)C[C@@H]1O [Example 6(2), 4,4-difluoro-1α,25-dihydroxyvitamin D3] | 92.716 | 26.684
